Like-named read-outs stand apart in the source and are kept apart here.
What was measured:
[1] = target: T1, hA1 (Homo sapiens, UniProt P30542); assay: hA1 receptor affinity (Ki); format: binding; settings: list of examples 10-108
T1 sequence (P30542 1-326): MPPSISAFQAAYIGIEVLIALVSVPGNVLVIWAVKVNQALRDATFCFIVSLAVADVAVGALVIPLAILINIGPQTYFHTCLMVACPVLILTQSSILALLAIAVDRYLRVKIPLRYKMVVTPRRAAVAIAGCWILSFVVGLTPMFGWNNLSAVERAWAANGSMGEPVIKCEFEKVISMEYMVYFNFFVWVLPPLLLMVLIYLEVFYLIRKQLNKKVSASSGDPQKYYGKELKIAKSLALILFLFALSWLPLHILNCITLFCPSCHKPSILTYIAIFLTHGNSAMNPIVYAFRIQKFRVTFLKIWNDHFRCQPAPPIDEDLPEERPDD

[2] = target: T2, human adenosine A2A receptor (Homo sapiens, UniProt P29274); assay: [3H]-SCH-58261 binding assay, human adenosine A2A receptor (CHO cell membranes, SPA); settings: for Ki: [3H]-SCH-58261 displacement, read-out: hA2a Ki; for Select. A1/A2a: ratio hA1 Ki / hA2a Ki
T2 construct: expressed in transfected cells; host or cells: CHO cells, semliki forest virus expression system; washed membranes
Method: Human Adenosine A2A Receptor
The human adenosine A2A receptor was recombinantly expressed in chinese hamster ovary (CHO) cells using the semliki forest virus expression system. Cells were harvested, washed twice by centrifugation, homogenized and again washed by centrifugation. The final washed membrane pellet was suspended in a Tris (50 mM) buffer containing 120 mM NaCl, 5 mM KCl, 2 mM CaCl2 and 10 mM MgCl2 (pH 7.4) (buffer A). […] Compounds were tested at 10 concentrations from 10 μM-0.3 nM. All assays were conducted in duplicate and repeated at least two times. Assay plates were incubated for 1 hour at room temperature before centrifugation and then bound ligand determined using a Packard Topcount scintillation counter. IC50 values were calculated using a non-linear curve fitting program and Ki values calculated using the Cheng-Prussoff equation.

[3] = Ki by Cheng-Prussoff, table of preferred compounds

T2 sequence (P29274 whole entry): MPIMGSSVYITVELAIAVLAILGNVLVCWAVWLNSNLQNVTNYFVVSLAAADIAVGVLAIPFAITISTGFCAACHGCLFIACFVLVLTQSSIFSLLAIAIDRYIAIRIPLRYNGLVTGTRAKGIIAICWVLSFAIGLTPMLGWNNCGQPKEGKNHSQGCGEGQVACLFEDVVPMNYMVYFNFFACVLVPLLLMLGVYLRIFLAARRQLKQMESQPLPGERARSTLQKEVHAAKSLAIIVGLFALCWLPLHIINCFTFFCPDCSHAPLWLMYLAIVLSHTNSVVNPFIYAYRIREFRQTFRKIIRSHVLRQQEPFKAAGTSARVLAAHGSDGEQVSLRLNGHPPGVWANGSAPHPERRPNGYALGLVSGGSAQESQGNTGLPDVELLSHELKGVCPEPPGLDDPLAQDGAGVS

Structure (SMILES) | Ki [1] [µM] | Ki [2, 3] [µM] | Select. A1/A2a [2] | Ki ([2]; list of examples 10-108) [µM]
C[C@@H]1C[C@@H](C)CN(C(=O)c2cc(N)c3nc(-c4ccc(Br)o4)nn3c2)C1 (stereo in doubt) [Example 14, [8-Amino-2-(5-bromo-furan-2-yl)-[1,2,4]triazolo[1,5-a]pyridin-6-yl]-(3,5-dimethyl-piperidin-1-yl)-methanone] | 1.19 | 0.0372 | 32 | 
COCC1CCCN1C(=O)c1cc(N)c2nc(-c3ccco3)nn2c1 (stereo in doubt) [Example 41, (8-Amino-2-furan-2-yl-[1,2,4]triazolo[1,5-a]pyridin-6-yl)-(2-R-methoxymethyl-pyrrolidin-1-yl)-methanone] | 4.36 | 0.0776 | 56.2 | 
CCN(CC)C(=O)C1CCCN(C(=O)c2cc(N)c3nc(-c4ccc(Br)o4)nn3c2)C1 (stereo not drawn) [Example 13, 1-[8-Amino-2-(5-bromo-furan-2-yl)-[1,2,4]triazolo[1,5-a]pyridine-6-carbonyl]-piperidine-3-carboxylic acid diethylamide] | 2.69 |  |  | 
CC1CCCCN1C(=O)c1cc(N)c2nc(-c3ccc(Br)o3)nn2c1 (stereo not drawn) [Example 15, [8-Amino-2-(5-bromo-furan-2-yl)-[1,2,4]triazolo[1,5-a]pyridin-6-yl]-(2-methyl-piperidin-1-yl)-methanone] | 1.94 |  |  | 
COC[C@@H]1CCCN1C(=O)c1cc(N)c2nc(-c3ccc(Br)o3)nn2c1 [Example 16, [8-Amino-2-(5-bromo-furan-2-yl)-[1,2,4]triazolo[1,5-a]pyridin-6-yl]-(2-methoxymethyl-pyrrolidin-1-yl)-methanone] | 1.05 |  |  | 
CN(C)C(=O)[C@@H]1CCCN1C(=O)c1cc(N)c2nc(-c3ccc(Br)o3)nn2c1 [Example 18, 1-[8-Amino-2-(5-bromo-furan-2-yl)-[1,2,4]triazolo[1,5-a]pyridine-6-carbonyl]-pyrrolidine-2-carboxylic acid (S)-dimethylamide] | 1.11 | 0.067 | 16.5 | 
CN(C)C(=O)CN(C)C(=O)c1cc(N)c2nc(-c3ccc(Br)o3)nn2c1 [Example 19, 8-Amino-2-(5-bromo-furan-2-yl)-[1,2,4]triazolo[1,5-a]pyridine-6-carboxylic acid dimethylcarbamoyl-methyl-methyl-amide] | 3 |  |  | 
CC1CCCN(C(=O)c2cc(N)c3nc(-c4ccc(Br)o4)nn3c2)C1 (stereo not drawn) [Example 20, [8-Amino-2-(5-bromo-furan-2-yl)-[1,2,4]triazolo[1,5-a]pyridin-6-yl]-(3-methyl-piperidin-1-yl)-methanone] | 0.803 |  |  | 
CCCN(C)C(=O)c1cc(N)c2nc(-c3ccc(Br)o3)nn2c1 [Example 21, 8-Amino-2-(5-bromo-furan-2-yl)-[1,2,4]triazolo[1,5-a]pyridine-6-carboxylic acid methyl-propyl-amide] | 1.15 |  |  | 
CCN(CCc1ccccn1)C(=O)c1cc(N)c2nc(-c3ccc(Br)o3)nn2c1 [Example 22, 8-Amino-2-(5-bromo-furan-2-yl)-[1,2,4]triazolo[1,5-a]pyridine-6-carboxylic acid ethyl-(2-pyridin-2-yl-ethyl)-amide] | 1.42 |  |  | 
Nc1cc(C(=O)N2CCSCC2)cn2nc(-c3ccc(Br)o3)nc12 [Example 23, [8-Amino-2-(5-bromo-furan-2-yl)-[1,2,4]triazolo[1,5-a]pyridin-6-yl]-thiomorpholin-4-yl-methanone] | 0.937 |  |  | 
CN(CCC#N)C(=O)c1cc(N)c2nc(-c3ccc(Br)o3)nn2c1 [Example 24, 8-Amino-2-(5-bromo-furan-2-yl)-[1,2,4]triazolo[1,5-a]pyridine-6-carboxylic acid (2-cyano-ethyl)-methyl-amide] | 0.83 |  | 7.5 | 0.111
CN(CCc1ccccc1)C(=O)c1cc(N)c2nc(-c3ccc(Br)o3)nn2c1 [Example 25, 8-Amino-2-(5-bromo-furan-2-yl)-[1,2,4]triazolo[1,5-a]pyridine-6-carboxylic acid methyl-phenethyl-amide] | 0.59 |  |  | 
Nc1cc(C(=O)N2CCCC2)cn2nc(-c3ccccn3)nc12 [Example 26, (8-Amino-2-pyridin-2-yl-[1,2,4]triazolo[1,5-a]pyridin-6-yl)-pyrrolidin-1-yl-methanone] | 3.57 |  |  | 
Nc1cc(C(=O)N2CCCC2)cn2nc(-c3ccco3)nc12 [Example 34, (8-Amino-2-furan-2-yl-[1,2,4]triazolo[1,5-a]pyridin-6-yl)-pyrrolidin-1-yl-methanone] | 4.2 |  |  | 
Nc1cc(C(=O)N2CCCCC2)cn2nc(-c3ccco3)nc12 [Example 35, (8-Amino-2-furan-2-yl-[1,2,4]triazolo[1,5-a]pyridin-6-yl)-piperidin-1-yl-methanone] | 3.44 |  |  | 
CC1CCCN1C(=O)c1cc(N)c2nc(-c3ccco3)nn2c1 (stereo not drawn) [Example 37, (8-Amino-2-furan-2-yl-[1,2,4]triazolo[1,5-a]pyridin-6-yl)-(2-methyl-pyrrolidin-1-yl)-methanone] | 2.94 | 0.0349 | 84.2 | 
CC1CCCCN1C(=O)c1cc(N)c2nc(-c3ccco3)nn2c1 (stereo not drawn) [Example 39, (8-Amino-2-furan-2-yl-[1,2,4]triazolo[1,5-a]pyridin-6-yl)-(2-methyl-piperidin-1-yl)-methanone] | 2.19 |  | 16.1 | 0.136
COC[C@H]1CCCN1C(=O)c1cc(N)c2nc(-c3ccco3)nn2c1 [Example 42, (8-Amino-2-furan-2-yl-[1,2,4]triazolo[1,5-a]pyridin-6-yl)-(2-S-methoxymethyl-pyrrolidin-1-yl)-methanone] | 5.63 | 0.0694 | 81.1 | 
NC(=O)[C@H]1CCCN1C(=O)c1cc(N)c2nc(-c3ccco3)nn2c1 [Example 43, 1-(8-Amino-2-furan-2-yl-[1,2,4]triazolo[1,5-a]pyridine-6-carbonyl)-pyrrolidine-2-R-carboxylic acid amide] | 2.33 |  | 16.9 | 0.138
CC1CCCN(C(=O)c2cc(N)c3nc(-c4ccco4)nn3c2)C1 (stereo not drawn) [Example 46, (8-Amino-2-furan-2-yl-[1,2,4]triazolo[1,5-a]pyridin-6-yl)-(3-methyl-piperidin-1-yl)-methanone] | 2.69 |  | 20.4 | 0.131
Nc1cc(C(=O)N(Cc2ccccc2)Cc2ccccc2)cn2nc(-c3ccco3)nc12 [Example 48, 8-Amino-2-furan-2-yl-[1,2,4]triazolo[1,5-a]pyridine-6-carboxylic acid dibenzylamide] | 0.247 |  | 7.5 | 0.0327
Nc1cc(C(=O)N2CCCC2)cn2nc(-c3cccs3)nc12 [Example 51, (8-Amino-2-thiophen-2-yl-[1,2,4]triazolo[1,5-a]pyridin-6-yl)-pyrrolidin-1-yl-methanone] | 0.725 |  |  | 
Cc1ccc(-c2nc3c(N)cc(C(=O)N4CCCC4)cn3n2)o1 [Example 83, [8-Amino-2-(5-methyl-furan-2-yl)-[1,2,4]triazolo[1,5-a]pyridin-6-yl]-pyrrolidin-1-yl-methanone] | 1.64 |  |  | 
Cc1ccc(-c2nc3c(N)cc(C(=O)N4CCCCC4)cn3n2)o1 [Example 84, [8-Amino-2-(5-methyl-furan-2-yl)-[1,2,4]triazolo[1,5-a]pyridin-6-yl]-piperidin-1-yl-methanone] | 1.27 |  |  | 

— US6689790B2, “Substituted triazolopyridine compounds” (Hoffmann-La Roche Inc., priority 2001, dated 2004)
